Patent US8178506B2, “Oligomeric compounds and compositions for use in modulation of small non-coding RNAs” (Regulus Therapeutics Inc., priority 2003, dated 2012)
In the oligonucleotide strings, read from the 5' end, every base follows the letter of its sugar. An asterisk marks phosphorothioate; unmarked linkages are phosphodiester. Other units and linkages are bracketed, terminal groups are in braces. A string of capitals states the bases alone. e = 2'-O-(2-methoxyethyl) (MOE); [5mC] = 5-methylcytosine

Assays:
adipocytes = assay: Triglyceride accumulation assay in adipocytes; format: cell-based, human
aP2 = aP2 mRNA expression in adipocytes (real-time PCR); format: cell-based, human; details: for AP2 (mRNA expression): adipocytes, 250 nM oligomeric compound, day nine post-transfection, relative to control (1.0); for aP2 mRNA: Table 75
HSL = HSL mRNA expression in adipocytes (real-time PCR); format: cell-based, human; details: for HSL (mRNA expression): adipocytes, 250 nM oligomeric compound, day nine post-transfection, relative to control (1.0); for HSL mRNA: differentiating adipocytes transfected with oligomeric compound
Glut4 = Glut4 mRNA expression in adipocytes (real-time PCR); format: cell-based, human; details: for Glut4 (mRNA expression): adipocytes, 250 nM oligomeric compound, day nine post-transfection, relative to control (1.0); for GLUT4 mRNA: differentiating adipocytes transfected with oligomeric compound
PPARγ = PPARγ mRNA expression in adipocytes (real-time PCR); format: cell-based, human; details: for PPAR gamma (mRNA expression): adipocytes, 250 nM oligomeric compound, day nine post-transfection, relative to control (1.0); for PPAR gamma mRNA: differentiating adipocytes transfected with oligomeric compound
HuVECs = assay: Endothelial tube formation assay in HuVECs; details: 75 nM oligomeric compound
[1] = adipocytes, 250 nM oligomeric compound, relative to control (1.0), Table 15
[2] = differentiating adipocytes transfected with oligomeric compound, Table 75
[3] = differentiating adipocytes transfected with oligomeric compound

Substance	TG (triglyceride accumulation) (adipocytes; [2])	aP2 mRNA (aP2; [3])	HSL mRNA (HSL; Table 75)	GLUT4 mRNA (Glut4; Table 75)	PPAR gamma mRNA (PPARγ; Table 75)	% Activity Relative to UTC (tube formation) (HuVECs; Table 57) [%]	% Activity Relative to UTC (tube formation) (HuVECs; Table 56) [%]	also measured
327925 (antisense eT*eA*eG*e[5mC]*eT*eG*eG*eT*eT*eG*eA*eA*eG*eG*eG*eG*eA*e[5mC]*e[5mC]*eA*eA) [compound 327925]								TG (triglyceride accumulation) (adipocytes; [1]): 0.72; TG (triglyceride accumulation) (adipocytes; adipocytes, 250 nM oligomeric compound, relative to control (1.0), Table 16): 0.63; AP2 (mRNA expression) (aP2; Table 15): 0.77; AP2 (mRNA expression) (aP2; Table 16): 0.77; HSL (mRNA expression) (HSL; Table 15): 0.78; HSL (mRNA expression) (HSL; Table 16): 0.75; Glut4 (mRNA expression) (Glut4; Table 15): 1.99; Glut4 (mRNA expression) (Glut4; Table 16): 0.61; PPAR gamma (mRNA expression) (PPARγ; Table 15): 0.60; PPAR gamma (mRNA expression) (PPARγ; Table 16): 0.83; % Activity Relative to UTC (tube formation) (HuVECs; Table 58): 44.4%
327897 (antisense eA*e[5mC]*eA*eG*eG*e[5mC]*e[5mC]*eG*eG*eG*eA*e[5mC]*eA*eA*eG*eT*eG*e[5mC]*eA*eA*eT*eA) [compound 327897]	28 percentage of untreated control (UTC)	62 percentage of untreated control (UTC)	39 percentage of untreated control (UTC)	32 percentage of untreated control (UTC)	66 percentage of untreated control (UTC)			% Activity Relative to UTC (tube formation) (HuVECs; Table 59): 40.0%
327916 (antisense eT*eG*eG*e[5mC]*eA*eT*eT*e[5mC]*eA*e[5mC]*e[5mC]*eG*e[5mC]*eG*eT*eG*e[5mC]*e[5mC]*eT*eT*eA*eA) [compound 327916]	56 percentage of untreated control (UTC)	67 percentage of untreated control (UTC)	64 percentage of untreated control (UTC)	51 percentage of untreated control (UTC)	71 percentage of untreated control (UTC)	96.6		
327899 (antisense e[5mC]*eA*eG*eT*eG*eA*eA*eT*eT*e[5mC]*eT*eA*e[5mC]*e[5mC]*eA*eG*eT*eG*e[5mC]*e[5mC]*eA*eT*eA) [compound 327899]	25 percentage of untreated control (UTC)	47 percentage of untreated control (UTC)	27 percentage of untreated control (UTC)	14 percentage of untreated control (UTC)	62 percentage of untreated control (UTC)	34.5		
327921 (antisense e[5mC]*eT*eT*e[5mC]*e[5mC]*eA*eG*eT*e[5mC]*eG*eG*eG*eG*eA*eT*eG*eT*eT*eT*eA*e[5mC]*eA) [compound 327921]	56 percentage of untreated control (UTC)	76 percentage of untreated control (UTC)	76 percentage of untreated control (UTC)	36 percentage of untreated control (UTC)	75 percentage of untreated control (UTC)	96.6		
327885 (antisense eA*e[5mC]*eT*eA*e[5mC]*e[5mC]*eT*eG*e[5mC]*eA*e[5mC]*eT*eG*eT*eA*eA*eG*e[5mC]*eA*e[5mC]*eT*eT*eT*eG) [compound 327885]	29 percentage of untreated control (UTC)	69 percentage of untreated control (UTC)	57 percentage of untreated control (UTC)	40 percentage of untreated control (UTC)	59 percentage of untreated control (UTC)		50.0	
327920 (antisense eG*eA*eG*eA*e[5mC]*e[5mC]*e[5mC]*eA*eG*eT*eA*eG*e[5mC]*e[5mC]*eA*eG*eA*eT*eG*eT*eA*eG*e[5mC]*eT) [compound 327920]	20 percentage of untreated control (UTC)	22 percentage of untreated control (UTC)	14 percentage of untreated control (UTC)	0 percentage of untreated control (UTC)	34 percentage of untreated control (UTC)	41.4		
327895 (antisense eA*e[5mC]*eA*eA*eA*e[5mC]*eA*e[5mC]*e[5mC]*eA*eT*eT*eG*eT*e[5mC]*eA*e[5mC]*eA*e[5mC]*eT*e[5mC]*e[5mC]*eA) [compound 327895]	76 percentage of untreated control (UTC)	90 percentage of untreated control (UTC)	88 percentage of untreated control (UTC)	76 percentage of untreated control (UTC)	86 percentage of untreated control (UTC)		100.0	
327877 (antisense e[5mC]*eG*e[5mC]*e[5mC]*eA*eA*eT*eA*eT*eT*eT*eA*e[5mC]*eG*eT*eG*e[5mC]*eT*eG*e[5mC]*eT*eA) [compound 327877]							78.6	TG (triglyceride accumulation) (adipocytes; [3]): 109 percentage of untreated control (UTC); AP2 mRNA (aP2; [3]): 77 percentage of untreated control (UTC); HSL mRNA (HSL): 82 percentage of untreated control (UTC); GLUT4 mRNA (Glut4): 119 percentage of untreated control (UTC); PPAR gamma mRNA (PPARγ): 85 percentage of untreated control (UTC)
327900 (antisense e[5mC]*eT*eG*e[5mC]*e[5mC]*eT*eG*eT*e[5mC]*eT*eG*eT*eG*e[5mC]*e[5mC]*eT*eG*e[5mC]*eT*eG*eT) [compound 327900]	26 percentage of untreated control (UTC)	32 percentage of untreated control (UTC)	21 percentage of untreated control (UTC)	12 percentage of untreated control (UTC)	55 percentage of untreated control (UTC)	55.2		
327892 (antisense eA*e[5mC]*eT*eT*eT*e[5mC]*eG*eG*eT*eT*eA*eT*e[5mC]*eT*eA*eG*e[5mC]*eT*eT*eT*eA) [compound 327892]							57.1	TG (triglyceride accumulation) (adipocytes; [1]): 0.42; AP2 (mRNA expression) (aP2; Table 15): 0.31; HSL (mRNA expression) (HSL; Table 15): 0.25; Glut4 (mRNA expression) (Glut4; Table 15): 0.07; PPAR gamma (mRNA expression) (PPARγ; Table 15): 0.32
